Assay results: patent publication US20120196927A1, “PROPHYLACTIC AND/OR THERAPEUTIC AGENT FOR METABOLIC SYNDROME” (priority 2009, published 2012)

Experiments:
Format in all cases: in vivo, mouse
male C57BL/6 mice [1] = experiment: Nobiletin, obesity-induced mice: blood lipid, glucose and adiponectin level; details: HFD; for Adipo *2 (Relative level of adiponectin): blood adiponectin to total weight of the white adipose tissue
Description: After the completion of the experiment, the levels of the blood neutral fat, total cholesterol, glucose, and adiponectin in the fating state, and those of the blood neutral fat, total cholesterol, and glucose in satiety state were determined as the same as those in the Example 1. In the table 22, relative adiponectin level means the ratio of specific level of the blood adiponectin to the total weight of the white adipose tissue.

[2] = system: SREBP1-c, SCD1, FAS, ACC1, DGAT1, GLUT4, Adiponectin, TNF-α, MCP-1, PPARγ genes; experiment: Nobiletin, obesity-induced mice: gene expression in the white adipose tissue (mRNA)
Description: mRNA expression level was determined by using real time PCR as follows. According to the direction attached with ISOGEN (Nippon Gene Co., Ltd), RNA was extracted from white adipose tissue, liver, and skeletal muscle. Next, cDNA was prepared from 1 μg of RNA by using Reverse Transcription System kit (Promega, USA). Subsequently, according to the direction attached with FastStart universal SYBR (Registered trademark) Greenmaster PCR kit reagent (Roche Diagnostics, Germany), primers suitable for each intended gene in the following experiments were synthesized. Real time PCR system 7700 HT (Applied Biosytems, USA) was used for the measurement, the cDNA was used as templates for the real time PCR. Reaction conditions were followed to those for the PCR kit reagents. Quantitative analysis of RNA level was performed by Comparison Ct method, using glyceraldehyde 3-phosphate dehydrogenase (GAPDH) as the standard.
The expression of mouse lipid biosynthesis-related gene and other gene shown in the following table 24 after obesity induction by ingesting the high fat diet were determined as mRNA levels to study the effects of nobiletin to these gene expression (n=9). The expression levels of each gene were shown in the ratio when those of the HFD were 1.

male C57BL/6 mice [3] = experiment: Nobiletin, obesity-induced mice: glucose tolerance test (OGTT); details: for Blood glucose level (OGTT): HFD
Description: The sugar tolerance test was carried out as the same as those done in the example 2 (n=9).

[4] = system: GLUT4, Adiponectin, TNF-α, MCP-1, IL-6, PPARγ, aP2, LPL, Perilipin genes; experiment: Diabetes model mice: mRNA expression in the white adipose tissue (real time RT-PCR); details: ob/ob mice, Vehicle = 1.00, nobiletin 200 mg/kg/day, Pioglitazone 30 mg/kg/day, 5 weeks
Description: The effects by nobiletin ingestion to the mRNA expression in the white adipose tissue and the liver were measured (n=10).
After the termination of the administration period for 5 weeks, mRNA expression levels of respective genes shown in the table 10 were determined by using real time RT-PCR method. The real time RT-PCR was carried out according to an operation manual provided by ISOGEN (NIPPON GENE CO., LTD); RNA was extracted from the white adipose tissue and the liver. Next, cDNA was prepared from using 1 μg of RNA by using Reverse Transcription System kit (Promega Corp., USA). Next, suitable primers for the above-mentioned genes were prepared according to the operation manual provided by FastStart universal SYBR (a registered trademark) Greenmaster PCR KIT agent (Roche Diagnostics K. K., Germany).
Real time PCR system 7700HT (Applied Biosytems, USA) was used for the determination to carry out the real time PCR by using the cDNAs as templates. Each reaction conditions were set according to the manual of the PCR KIT. Quantitative analysis of the RNA amount was carried out based on comparative Ct method by using glyceraldehyde 3-phosphate dehydrogenase (GAPDH) as the standard reference.

C57BL/6J-ob/ob mice [5] = details: p.o. daily 5 weeks, nobiletin 200 mg/kg/day (No200), Pioglitazone 30 mg/kg/day (P30)
Description: Diabetes model mice and the experimental system were as follows. As the diabetes model mice, 7 week age of male C57BL/6J-ob/ob (hereinafter, it was referred to as “ob/ob”) were purchased from Charles River Laboratories Japan Inc., and used as 10 mice/group.
For the negative control group (from FIGS. 5 to 10, it was shown as Vehicle; hereinafter, it is referred to as “solvent administration group”), 0.3% of CMC aqueous solution was administrated orally for 5 weeks in everyday at the dosage of 0.01 mL/g body weight. For the positive control group (in FIGS. 5 to 10 and hereinafter, it was referred to as “P30 administrated group”), 3 mg of Pioglitazone was suspended in 0.3% CMC aqueous solution so as to be orally administrated at the dosage of 0.01 mL/g body weight for 5 weeks in everyday (dosage: 30 mg/kg body weight/day).
For the sample ingestion group (in FIGS. 5 to 10 and hereinafter, it is referred to as “No200 ingestion group”), 20 mg of nobiletin purified as mentioned above (1) was suspended in 0.3% of carboxymethylcellulose (CMC) aqueous solution so as to be orally administrated at the dose of 0.01 mL/g body weight for 5 weeks in everyday (the dose: 200 mg/kg/day).
The body weight of mice, ingestion amount, weight of the white adipose tissue and liver weight of each mice were measured as the same as described in the example 3.

C57BL/6J-ob/ob mice [6] = experiment: Diabetes model mice: oral glucose tolerance test (OGTT); details: nobiletin 200 mg/kg/day, Pioglitazone 30 mg/kg/day
Description: The oral glucose tolerance test (OGTT) for the diabetes model mice (ob/ob) to which the nobiletin and others were administrated was subjected to the glucose tolerance test for studying the effects.
From 4 weeks after the start of the administration, the mice in each group were fasted for 16 hours, and then they were administrated 2 g/kg body weight of glucose per os. After the administration of glucose, […] of blood was collected from the tail vein at the time point of 0, 30, 60 and 120 minutes. Collected blood was centrifuged at 4° C., 3,000×g, for 15 minute to obtain plasma (n=10). The blood glucose level was measured as the same as that described in the example 1.

[7] = Fasting state, nobiletin 10 mg/kg/day p.o. 5 weeks
[8] = Fasting state, nobiletin 100 mg/kg/day p.o. 5 weeks
[9] = Satiety state, nobiletin 10 mg/kg/day p.o. 5 weeks
[10] = Satiety state, nobiletin 100 mg/kg/day p.o. 5 weeks
[11] = ratio HFD = 1, nobiletin 10 mg/kg/day p.o. 5 weeks
[12] = ratio HFD = 1, nobiletin 100 mg/kg/day p.o. 5 weeks

SMILES: COc1ccc(-c2cc(=O)c3c(OC)c(OC)c(OC)c(OC)c3o2)cc1OC [nobiletin]
- Blood level, Adipo *1 (adiponectin) (male C57BL/6 mice [1]; [7]): 7.19 ± 0.82 µg/mL
- Blood level, Glucose (male C57BL/6 mice [1]; [7]): 157.47 ± 10.54 mg/dL
- Blood level, T-CHO (male C57BL/6 mice [1]; [7]): 109.88 ± 9.09 mg/dL
- Blood level, TG (male C57BL/6 mice [1]; [7]): 79.99 ± 8.04 mg/dL
- Blood level, Adipo *1 (adiponectin) (male C57BL/6 mice [1]; [8]): 6.96 ± 0.99 µg/mL
- Blood level, Glucose (male C57BL/6 mice [1]; [8]): 128.49 ± 5.59 mg/dL
- Blood level, T-CHO (male C57BL/6 mice [1]; [8]): 131.55 ± 8.63 mg/dL
- Blood level, TG (male C57BL/6 mice [1]; [8]): 78.69 ± 6.57 mg/dL
- Blood level, Glucose (male C57BL/6 mice [1]; [9]): 224 ± 24.67 mg/dL
- Blood level, T-CHO (male C57BL/6 mice [1]; [9]): 147.47 ± 10.40 mg/dL
- Blood level, TG (male C57BL/6 mice [1]; [9]): 141.05 ± 12.25 mg/dL
- Blood level, Glucose (male C57BL/6 mice [1]; [10]): 224.76 ± 21.88 mg/dL
- Blood level, T-CHO (male C57BL/6 mice [1]; [10]): 169.24 ± 6.03 mg/dL
- Blood level, TG (male C57BL/6 mice [1]; [10]): 100.80 ± 14.95 mg/dL
- Adipo *2 (Relative level of adiponectin) (male C57BL/6 mice [1]; Fasting state, nobiletin 10 mg/kg/day p.o.): 3.87 ± 0.86 µg/mL/g
- Adipo *2 (Relative level of adiponectin) (male C57BL/6 mice [1]; Fasting state, nobiletin 100 mg/kg/day p.o.): 5.34 ± 0.97 µg/mL/g
- Expression level, ACC1 [2, 11]: 2.06 ± 0.05
- Expression level, Adiponectin [2, 11]: 1.97 ± 0.09
- Expression level, DGAT1 [2, 11]: 2.17 ± 0.19
- Expression level, FAS [2, 11]: 2.78 ± 0.06
- Expression level, GLUT4 [2, 11]: 1.34 ± 0.09
- Expression level, MCP-1 [2, 11]: 0.44 ± 0.02
- Expression level, PPARγ [2, 11]: 1.61 ± 0.11
- Expression level, SCD1 [2, 11]: 2.30 ± 0.06
- Expression level, SREBP1-c [2, 11]: 2.15 ± 0.21
- Expression level, TNF-α [2, 11]: 1.06 ± 0.12
- Expression level, ACC1 [2, 12]: 1.69 ± 0.07
- Expression level, Adiponectin [2, 12]: 2.02 ± 0.08
- Expression level, DGAT1 [2, 12]: 1.80 ± 0.14
- Expression level, FAS [2, 12]: 2.50 ± 0.03
- Expression level, GLUT4 [2, 12]: 1.35 ± 0.07
- Expression level, MCP-1 [2, 12]: 0.35 ± 0.01
- Expression level, PPARγ [2, 12]: 1.36 ± 0.05
- Expression level, SCD1 [2, 12]: 2.95 ± 0.17
- Expression level, SREBP1-c [2, 12]: 1.53 ± 0.20
- Expression level, TNF-α [2, 12]: 0.58 ± 0.14
- area under the curve (AUC) of blood glucose in OGTT, compared with HFD administration group (male C57BL/6 mice [3]; 0 to 120 minutes, nobiletin 10 mg/kg/day p.o.): no significant difference
- area under the curve (AUC) of blood glucose in OGTT, compared with HFD group (male C57BL/6 mice [3]; 0 to 120 minutes, nobiletin 100 mg/kg/day p.o., p<0.05): significant difference
- Blood glucose level (OGTT) (male C57BL/6 mice [3]; 0 minute after glucose, nobiletin 10 mg/kg/day p.o.): 157.47 ± 10.54 mg/dL
- Blood glucose level (OGTT) (male C57BL/6 mice [3]; 0 minute after glucose, nobiletin 100 mg/kg/day p.o.): 128.49 ± 5.59 mg/dL
- Blood glucose level (OGTT) (male C57BL/6 mice [3]; 15 minutes after glucose, nobiletin 10 mg/kg/day p.o.): 384.94 ± 17.66 mg/dL
- Blood glucose level (OGTT) (male C57BL/6 mice [3]; 15 minutes after glucose, nobiletin 100 mg/kg/day p.o.): 340.91 ± 16.88 mg/dL
- Blood glucose level (OGTT) (male C57BL/6 mice [3]; 30 minutes after glucose, nobiletin 10 mg/kg/day p.o.): 342.5 ± 27.08 mg/dL
- Blood glucose level (OGTT) (male C57BL/6 mice [3]; 30 minutes after glucose, nobiletin 100 mg/kg/day p.o.): 334.84 ± 16.98 mg/dL
- Blood glucose level (OGTT) (male C57BL/6 mice [3]; 60 minutes after glucose, nobiletin 10 mg/kg/day p.o.): 271.76 ± 31.64 mg/dL
- Blood glucose level (OGTT) (male C57BL/6 mice [3]; 60 minutes after glucose, nobiletin 100 mg/kg/day p.o.): 267.27 ± 18.22 mg/dL
- Blood glucose level (OGTT) (male C57BL/6 mice [3]; 120 minutes after glucose, nobiletin 10 mg/kg/day p.o.): 217.1 ± 35.92 mg/dL
- Blood glucose level (OGTT) (male C57BL/6 mice [3]; 120 minutes after glucose, nobiletin 100 mg/kg/day p.o.): 178.45 ± 15.37 mg/dL
- Gene expression level (ratio), [W]Adiponectin [4]: 1.54 ± 0.04
- Gene expression level (ratio), [W]GLUT4 [4]: 1.88 ± 0.12
- Gene expression level (ratio), [W]IL-6 [4]: 0.55 ± 0.03
- Gene expression level (ratio), [W]LPL [4]: 1.50 ± 0.18
- Gene expression level (ratio), [W]MCP-1 [4]: 0.64 ± 0.02
- Gene expression level (ratio), [W]PPARγ [4]: 1.79 ± 0.02
- Gene expression level (ratio), [W]Perilipin [4]: 1.61 ± 0.17
- Gene expression level (ratio), [W]TNF-α [4]: 0.80 ± 0.048
- Gene expression level (ratio), [W]aP2 [4]: 1.10 ± 0.01
- Gained body weight (C57BL/6J-ob/ob mice [5]): 9.33 ± 0.49 g
- white adipose tissue (C57BL/6J-ob/ob mice [5]): 5.69 ± 0.17 g
- Blood glucose level (OGTT) (C57BL/6J-ob/ob mice [6]; 0 min after 2 g/kg glucose p.o.): 145.26 ± 7.56 mg/dL
- Blood glucose level (OGTT) (C57BL/6J-ob/ob mice [6]; 30 min after 2 g/kg glucose p.o.): 304.41 ± 20.23 mg/dL
- Blood glucose level (OGTT) (C57BL/6J-ob/ob mice [6]; 60 min after 2 g/kg glucose p.o.): 207.47 ± 11.56 mg/dL
- Blood glucose level (OGTT) (C57BL/6J-ob/ob mice [6]; 120 min after 2 g/kg glucose p.o.): 192.57 ± 9.01 mg/dL
